Test results as given in US9828350B2, “5,6-dihydro-2H-[1,4]oxazin-3-yl-amine derivatives useful as inhibitors of beta-secretase (BACE)” (Janssen Pharmaceutica NV, priority 2010, dated 2017).
Counter-ions that a name gives are not always drawn.

How the values were obtained:
[1] = tested on: Aβ42; experiment: Demonstration of in vivo efficacy, brain Aβ42 lowering (ELISA); settings: mouse brain
Text: (§1) To determine whether acute administration of an Aβ42 peptide lowering agent would reduce Aβ peptide levels in vivo, non-transgenic rodents, e.g. mice or rats were used. Animals treated with the Aβ peptide lowering agent were examined and compared to those untreated or treated with vehicle and brain levels of soluble Aβ42 and total Aβ were quantitated by standard techniques, for example, using ELISA.
(§2) A typical protocol for measuring Aβ42 lowering in vivo is shown but it is only one of many variations that could be used to optimize the levels of detectable Aβ. For example, Aβ peptide lowering compounds were formulated in 20% hydroxypropyl 3 cyclodextrin. The Aβ peptide lowering agents were administered as a single oral dose (p.o.) or a single subcutaneous dose (s.c.) to overnight fasted animals. After a certain time, usually 2 or 4 h (as indicated in Table 19), the animals were sacrificed and Aβ42 levels were analysed.
(§3) Blood was collected by decapitation and exsanguinations in EDTA-treated collection tubes. Blood was centrifuged at 1900 g for 10 minutes (min) at 4° C. and the plasma recovered and flash frozen for later analysis. The brain was removed from the cranium and hindbrain. The cerebellum was removed and the left and right hemisphere were separated. The left hemisphere was stored at −18° C. for quantitative analysis of test compound levels. The right hemisphere was rinsed with phosphate-buffered saline (PBS) buffer and immediately frozen on dry ice and stored at −80° C. until homogenization for biochemical assays.
(§4) Mouse brains from non-transgenic animals were resuspended in 8 volumes of 0.4% DEA (diethylamine)/50 mM NaCl containing protease inhibitors (Roche-11873580001 or 04693159001) per gram of tissue, e.g. for 0.158 g brain, add 1.264 ml of 0.4% DEA. All samples were homogenized in the FastPrep-24 system (MP Biomedicals) using lysing matrix D (MPBio #6913-100) at 6 m/s for 20 seconds. Homogenates were centrifuged at 221.300×g for 50 min. The resulting high speed supernatants were then transferred to fresh eppendorf tubes. Nine parts of supernatant were neutralized with 1 part 0.5 M Tris-HCl pH 6.8 and used to quantify Aβtotal and Aβ42.
(§5) To quantify the amount of Aβtotal and Aβ42 in the soluble fraction of the brain homogenates, Enzyme-Linked-Immunosorbent-Assays were used. Briefly, the standards (a dilution of synthetic Aβ1-40 and Aβ1-42, Bachem) were prepared in 1.5 ml Eppendorf tube in Ultraculture, with final concentrations ranging from 10000 to 0.3 pg/ml. The samples and standards were co-incubated with HRPO-labelled N-terminal antibody for Aβ42 detection and with the biotinylated mid-domain antibody 4G8 for Aβtotal detection. […] The plate was allowed to incubate overnight at 4° C. in order to allow formation of the antibody-amyloid complex. Following this incubation and subsequent wash steps the ELISA for Aβ42 quantification was finished by addition of Quanta Blu fluorogenic peroxidase substrate according to the manufacturer's instructions (Pierce Corp., Rockford, Ill.). A reading was performed after 10 to 15 min (excitation 320 nm/emission 420 nm).

[2] = tested on: Abeta 1-42; experiment: Cellular αLisa assay in SKNBE2 cells, Abeta 1-42; format: cell-based, human; settings: incubated for 18 hours; for IC50: Homo sapiens, SKNBE2, 18 h, read-out: Cellular αLisa assay in SKNBE2 cells Abeta 42 pIC50 (converted)
Summary of the method: (§6)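 Secreted Abeta levels were measured by sandwich αLisa, pairing biotin-AbN/25 donor beads with Ab4G8 acceptor beads for total Abeta or cAb42/26 for Abeta 1-42, read at 615 nm after 650 nm excitation following 1 hour. Cells were SKNBE2 expressing wild-type hAPP695, exposed to compound for 18 hours.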

[3] = tested on: Aβtotal; experiment: Demonstration of in vivo efficacy, brain Aβtotal lowering (ELISA); settings: mouse brain
Text: as §1, §2, §3, §4, §5
For Aβtotal detection, a Streptavidine-Peroxidase-Conjugate was added, followed 60 min later by an additional wash step and addition of Quanta Blu fluorogenic peroxidase substrate according to the manufacturer's instructions (Pierce Corp., Rockford, Ill.). A reading was performed after 10 to 15 min (excitation 320 nm/emission 420 nm).

[4] = tested on: Abeta total; experiment: Cellular αLisa assay in SKNBE2 cells, Abeta total; format: cell-based, human; settings: incubated for 18 hours; for IC50: Homo sapiens, SKNBE2, 18 h, read-out: Cellular αLisa assay in SKNBE2 cells Abetatotal pIC50 (converted)
Summary of the method: as §6

[5] = target: recombinant BACE1 protein (Homo sapiens, UniProt P56817); experiment: Biochemical FRET based assay; settings: recombinant BACE1 1 μg/ml, 120 minutes at room temperature, pH 5.0; for IC50: read-out: Biochemical FRET based assay pIC50 (converted)
Summary of the method: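 Proteolysis was read as the rise in donor fluorescence (320 nm excitation, 405 nm emission) from T0 to T120, expressed in RFU. The reaction ran 120 minutes at room temperature at pH 5.0 in citrate buffer with 4% DMSO, using […] quenched Swedish APP peptide and 1 μg/ml BACE1.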

[6] = target: T1, P-gp (Homo sapiens, UniProt P08183); experiment: Transepithelial transport of test compounds through LLC-MDR1 monolayers; format: in vitro ADME; settings: for efflux ratio at 120 min, 1 μM / Papp A→B at 120 min, 1 μM / Papp B→A at 120 min, 1 μM: pig, LLC-PK1; for efflux ratio at 120 min, 1 μM: read-out: BA/AB; for Papp A→B at 120 min, 1 μM: read-out: A to B (Apparent Permeability, Papp); for Papp B→A at 120 min, 1 μM: read-out: B to A (Apparent Permeability, Papp); for A to B (Apparent Permeability, Papp) / B to A (Apparent Permeability, Papp): 1 μM test compound, 120 minutes; for A to B (Apparent Permeability, Papp): apical to basolateral, absence of GF120918; for B to A (Apparent Permeability, Papp): basolateral to apical
T1 construct: expressed in transfected cells; host or cells: LLC-PK1 cells stably transduced with MDR1 (LLC-MDR1)
Experimental: Brief Assay Description for the Measurement of Transepithelial Transport of Test Compounds Through LLC-MDR1 Monolayers
The purpose of this assay was to assess both the in vitro passive permeability of test compounds and their ability to be transported substrates of P-gp using LLC-PK1 cells stably transduced with MDR1 in a trans-well system. The positive control for transport was ^3H-digoxin (30 nM) and the positive control inhibitor was GF120918 (5 μM). The marker compound for low permeability was ^14C-Mannitol (1 μM). The test compound concentration was 1 μM.
The integrity of the cellular monolayer was assessed in each incubation well through the inclusion of the fluorescent, low permeability marker compound, Fluorescein.
In detail, LLC-MDR1 cells were seeded on 24-well cell culture inserts (Millicell®-PCF, 0.4 μm, 13 mm diameter, 0.7 cm^2) at 400,000 cells/cm^2. Cell culture medium consisted of Medium 199 supplemented with 10% Foetal Bovine Serum (FBS) and 100 U/ml Penicillin/streptomycin and was replaced the day after seeding and the day before the experiment. The transport experiment was performed 5 days after seeding. On the day of the experiment, solutions of the test compounds were applied to the apical or basolateral side of the monolayers to assess transport in the A to B and B to A directions, respectively. The medium used in the assay was (OPTI-MEM (1×) (GIBCO) with 1 w/v % Bovine Serum Albumin. Inserts were incubated at 37° C. in a humidified incubator containing 5% CO2. Samples from the acceptor and donor compartments were collected after an incubation time of 120 min, to assess the permeability and to allow estimation of the test compound recovery during the experiment, respectively. Transport experiments were performed in triplicate. Absolute test compound concentrations were measured using LC-MS/MS and quantified via a calibration curve.

[7] = LLC-MDR1 monolayers, ratio of B to A and A to B permeation rates

Chain of recombinant BACE1 protein (P56817 46-501): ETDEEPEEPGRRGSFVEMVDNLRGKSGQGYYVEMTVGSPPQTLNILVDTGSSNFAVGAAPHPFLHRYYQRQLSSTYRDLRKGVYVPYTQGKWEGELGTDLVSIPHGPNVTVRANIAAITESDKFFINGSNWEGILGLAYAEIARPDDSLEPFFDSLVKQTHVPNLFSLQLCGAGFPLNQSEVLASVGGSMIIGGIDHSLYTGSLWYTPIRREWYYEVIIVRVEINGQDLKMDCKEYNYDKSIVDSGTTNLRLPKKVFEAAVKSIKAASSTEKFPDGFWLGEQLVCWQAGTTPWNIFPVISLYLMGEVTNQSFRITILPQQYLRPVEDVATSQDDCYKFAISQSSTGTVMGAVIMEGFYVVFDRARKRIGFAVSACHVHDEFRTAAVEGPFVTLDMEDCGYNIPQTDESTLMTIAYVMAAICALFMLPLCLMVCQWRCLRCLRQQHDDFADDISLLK
T1 sequence (P08183 whole entry): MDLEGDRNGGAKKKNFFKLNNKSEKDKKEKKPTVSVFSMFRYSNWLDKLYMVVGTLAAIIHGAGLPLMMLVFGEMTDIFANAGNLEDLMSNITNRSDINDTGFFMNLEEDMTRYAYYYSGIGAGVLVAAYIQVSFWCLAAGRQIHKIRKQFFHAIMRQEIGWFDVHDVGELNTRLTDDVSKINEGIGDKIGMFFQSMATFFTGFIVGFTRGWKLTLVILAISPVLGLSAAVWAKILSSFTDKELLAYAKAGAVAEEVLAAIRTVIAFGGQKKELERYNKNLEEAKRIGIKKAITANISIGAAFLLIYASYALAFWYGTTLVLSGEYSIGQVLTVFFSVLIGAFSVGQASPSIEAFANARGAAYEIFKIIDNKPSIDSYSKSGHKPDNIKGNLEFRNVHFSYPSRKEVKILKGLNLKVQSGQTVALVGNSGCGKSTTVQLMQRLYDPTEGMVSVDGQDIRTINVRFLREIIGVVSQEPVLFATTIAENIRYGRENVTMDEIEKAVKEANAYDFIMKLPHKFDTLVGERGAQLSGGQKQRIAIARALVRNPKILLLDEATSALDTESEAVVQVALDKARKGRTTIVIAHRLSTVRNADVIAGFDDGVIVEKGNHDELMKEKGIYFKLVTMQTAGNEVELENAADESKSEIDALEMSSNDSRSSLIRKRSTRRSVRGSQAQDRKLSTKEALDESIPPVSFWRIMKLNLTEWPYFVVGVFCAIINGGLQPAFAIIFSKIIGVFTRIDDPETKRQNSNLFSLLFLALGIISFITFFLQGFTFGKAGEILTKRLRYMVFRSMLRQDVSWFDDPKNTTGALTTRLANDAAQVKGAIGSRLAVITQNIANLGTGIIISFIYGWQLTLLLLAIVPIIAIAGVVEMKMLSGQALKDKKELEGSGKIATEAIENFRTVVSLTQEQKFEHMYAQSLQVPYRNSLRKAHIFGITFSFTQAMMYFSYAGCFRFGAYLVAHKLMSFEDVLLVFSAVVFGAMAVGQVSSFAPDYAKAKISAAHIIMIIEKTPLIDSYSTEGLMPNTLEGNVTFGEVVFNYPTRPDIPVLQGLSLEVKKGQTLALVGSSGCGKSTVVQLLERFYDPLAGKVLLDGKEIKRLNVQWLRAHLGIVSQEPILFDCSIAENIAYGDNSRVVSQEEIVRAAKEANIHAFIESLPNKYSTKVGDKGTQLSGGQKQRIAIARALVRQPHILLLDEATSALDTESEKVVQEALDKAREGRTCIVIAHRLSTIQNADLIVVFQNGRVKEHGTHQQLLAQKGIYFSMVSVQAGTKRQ

Compound | Cellular αLisa assay in SKNBE2 cells Abeta 42 pIC50 [2] | Cellular αLisa assay in SKNBE2 cells Abetatotal pIC50 [4] | IC50 [5] [nM] | IC50 [2] [nM] | IC50 [4] [nM] | efflux ratio at 120 min, 1 μM [6, 7] | Papp A→B at 120 min, 1 μM [6] [×10⁻⁶ cm/s] | Papp B→A at 120 min, 1 μM [6] [×10⁻⁶ cm/s] | other results
CC1(c2cccc(-c3ccccc3)c2)COCC(N)=N1 (racemic) [Compound 1, rac-5-biphenyl-3-yl-5-methyl-5,6-dihydro-2H-1,4-oxazin-3-amine trifluoroacetate salt] | – | – | 24000 | 1480 | 1020 | – | – | – | Aβ42 (% Ctrl)_Mean ([1]; 30 mpk, s.c., 4 h): 102 % Ctrl; Aβtotal (% Ctrl)_Mean ([3]; 30 mpk, s.c., 4 h): 97 % Ctrl
CC1(c2cccc(NC(=O)c3ccc(C#N)cn3)c2)COCC(N)=N1 (single isomer, unassigned) [Compound 50] | 7.91 | 7.88 | – | – | – | – | – | – | Aβ42 (% Ctrl)_Mean ([1]; 5 mpk, s.c., 4 h): 133 % Ctrl; Aβtotal (% Ctrl)_Mean ([3]; 5 mpk, s.c., 4 h): 95 % Ctrl; Biochemical FRET based assay pIC50 [5]: 6.93
COc1cnc(C(=O)Nc2ccc(F)c([C@@]3(C4CC4)N=C(N)CO[C@H]3F)c2)cn1 [Compound 217] | – | – | – | 525 | 490 | – | – | – | Aβ42 (% Ctrl)_Mean ([1]; 30 mpk, p.o., 2 h): 80 % Ctrl; Aβtotal (% Ctrl)_Mean ([3]; 30 mpk, p.o., 2 h): 73 % Ctrl
CC1(c2cc(NC(=O)c3ccc(C#N)cn3)ccc2F)N=C(N)COC1F (single isomer, unassigned) [Compound 124] | 8.21 | 8.2 | – | – | – | – | – | – | Aβ42 (% Ctrl)_Mean ([1]; 30 mpk, p.o., 4 h): 23 % Ctrl; Aβtotal (% Ctrl)_Mean ([3]; 30 mpk, p.o., 4 h): 25 % Ctrl
C[C@]1(c2cc(NC(=O)c3ncc(C#N)cc3Cl)ccc2F)N=C(N)CO[C@@H]1F [Compound 209] | – | – | 39.8 | 15.5 | 13.8 | – | – | – | Aβ42 (% Ctrl)_Mean ([1]; 10 mpk, p.o., 4 h): 6 % Ctrl; Aβtotal (% Ctrl)_Mean ([3]; 10 mpk, p.o., 4 h): 14 % Ctrl
CC1(c2cc(-c3cncnc3)ccc2F)N=C(N)COC1C(F)(F)F (single isomer, unassigned) [Compound 106] | 6.2 | 6.23 | 4370 | – | – | 1.1 | 18.2 | 19.8 | melting point: 173.8 °C
COc1cnc(C(=O)Nc2ccc(F)c([C@@]3(C)N=C(N)CO[C@@H]3F)c2)cn1 [Compound 123] | – | – | – | 10.7 | 10.5 | – | – | – | Aβ42 (% Ctrl)_Mean ([1]; 10 mpk, p.o., 4 h): 38 % Ctrl; Aβ42 (% Ctrl)_Mean ([1]; 10 mpk, s.c., 4 h): 24 % Ctrl; Aβtotal (% Ctrl)_Mean ([3]; 10 mpk, p.o., 4 h): 38 % Ctrl; Aβtotal (% Ctrl)_Mean ([3]; 10 mpk, s.c., 4 h): 21 % Ctrl
C[C@@]1(c2cc(NC(=O)c3ccc(C#N)cn3)ccc2F)COCC(N)=N1 [Compound 43] | 8.34 | 8.45 | – | – | – | – | – | – | A to B (Apparent Permeability, Papp) ([6]; LLC-MDR1 monolayers): 1.4 ×10⁻⁶ cm/s; B to A (Apparent Permeability, Papp) ([6]; LLC-MDR1 monolayers): 26.6 ×10⁻⁶ cm/s; BA/AB [6, 7]: 18.5; Biochemical FRET based assay pIC50 [5]: 7.14
C[C@]1(c2cc(NC(=O)c3ccc(C#N)cn3)ccc2F)N=C(N)CO[C@@]1(F)C(F)(F)F [Compound 183] | – | – | 40.7 | 14.5 | 13.8 | – | – | – | melting point: 196.01 °C
COc1cnc(C(=O)Nc2ccc(F)c([C@]3(C)COCC(N)=N3)c2)cn1 [Compound 39] | 8.27 | 8.38 | – | – | – | – | – | – | A to B (Apparent Permeability, Papp) ([6]; LLC-MDR1 monolayers): 3.7 ×10⁻⁶ cm/s; B to A (Apparent Permeability, Papp) ([6]; LLC-MDR1 monolayers): 34.2 ×10⁻⁶ cm/s

Second part, led by results:

Cellular αLisa assay in SKNBE2 cells Abeta 42 pIC50 [2] | Cellular αLisa assay in SKNBE2 cells Abetatotal pIC50 [4] | IC50 [5] [nM] | IC50 [2] [nM] | IC50 [4] [nM] | efflux ratio at 120 min, 1 μM [6, 7] | Papp A→B at 120 min, 1 μM [6] [×10⁻⁶ cm/s] | Papp B→A at 120 min, 1 μM [6] [×10⁻⁶ cm/s] | Compound | other results
6.46 | 6.43 | 11200 | – | – | – | – | – | CC1(c2cccc(-c3cncnc3)c2)N=C(N)COC1F (single isomer, unassigned) [Compound 96] | Aβ42 (% Ctrl)_Mean ([1]; 30 mpk, s.c., 4 h): 116 % Ctrl; Aβtotal (% Ctrl)_Mean ([3]; 30 mpk, s.c., 4 h): 104 % Ctrl
– | – | 3640 | 257 | 219 | 25.9 | – | – | COc1cncc(-c2cccc(C3(C)COCC(N)=N3)c2)c1 (racemic) [Compound 4, rac-5-[3-(5-methoxypyridin-3-yl)phenyl]-5-methyl-5,6-dihydro-2H-1,4-oxazin-3-amine] | melting point: 150 °C
– | – | 1550 | 347 | 339 | 3.6 | 7.6 | 27.4 | COc1cncc(-c2cccc(C3(C)N=C(N)COC3F)c2)c1 (centres unmarked) [Compound 100] | melting point: 139.2 °C
7.53 | 7.52 | – | – | – | – | 9 | 9.8 | CC1(c2cccc(NC(=O)c3ccc(Cl)cn3)c2)N=C(N)COC1(F)C(F)(F)F (single isomer, unassigned) [Compound 113] | –
6.98 | 6.97 | 468 | – | – | 4.6 | 7.4 | 34.3 | COc1cncc(-c2cccc(C3(C)N=C(N)COC3F)c2)c1 (single isomer, unassigned) [Compound 93] | –
7.23 | 7.18 | 191 | – | – | 1.3 | 12 | 15 | COc1cncc(-c2cccc(C3(C)N=C(N)COC3(F)C(F)(F)F)c2)c1 (single isomer, unassigned) [Compound 118] | –
